In patent publication US10544130B2, “Metallo-beta-lactamase inhibitors” (priority 2015, dated 2020):
Converted amounts (≈) assume the structure as drawn.

Assays:
[1] = test system: MB 5890 Trans pFlp-Vim1 (MB9862); assay type: cell-based, Pseudomonas aeruginosa; details: OprD+, efflux−
[2] = test system: Pseudomonas aeruginosa MB 5919; assay: Minimum inhibitory concentrations of sentinel antibiotics (strain quality control); assay type: cell-based; details: OprD+, efflux+, parental strain
[3] = test system: MB 5919 Trans pFlp-Vim2 plasmid; assay type: cell-based, Pseudomonas aeruginosa; details: OprD+, efflux+
[4] = test system: MB 5919 Trans IMP1 plasmid (MB 9798); assay type: cell-based, Pseudomonas aeruginosa; details: OprD+, efflux+
[5] = test system: Pseudomonas aeruginosa MB 5890; assay: Minimum inhibitory concentrations of sentinel antibiotics (strain quality control); assay type: cell-based; details: OprD+, efflux−, parental strain
[6] = test system: MB 5919 Trans pFlp-Vim1 plasmid (MB 9861); assay type: cell-based, Pseudomonas aeruginosa; details: OprD+, efflux+
[7] = test system: MB 5890 Trans pFlp-Vim2 plasmid; assay type: cell-based, Pseudomonas aeruginosa; details: OprD+, efflux−
[8] = test system: MB 5890 Trans IMP1 plasmid (MB 9799); assay type: cell-based, Pseudomonas aeruginosa; details: OprD+, efflux−

For C[C@@H](O)[C@H]1C(=O)N2C(C(=O)O)=C(S[C@@H]3CN[C@H](C(=O)N(C)C)C3)[C@H](C)[C@H]12 [Meropenem, meropenem], the MIC [1] was 64 µg/mL (≈ 167 µM), the MIC [2] was 2 µg/mL (≈ 5.22 µM) and the MIC [3] was >64 µg/mL. For the same molecule, the MIC [4] was >64 µg/mL, the MIC [5] was 0.5 µg/mL (≈ 1.3 µM) and the MIC [6] was >64 µg/mL. The MIC [7] was 32 µg/mL (≈ 83.4 µM) and the MIC [8] was 64 µg/mL (≈ 167 µM).
